Biological target: T1, REV-ERBα LBD (human; residues 281-614 Δ324-422) (Homo sapiens, UniProt P20393, DEL324-422)
T1 construct: 6×Histag-REV-ERBα LBD (human; residues 281-614 Δ324-422); made in house; host or cells: Escherichia coli
Assay: TR-FRET corepressor interaction assay (REV-ERBα LBD, FITC-SMRT peptide)
Format: biochemical
Conditions: Table 2, read-out: REVERBα agonism (EC50 class, FRET assay)
Procedure: TR-FRET corepressor interaction assay. The time-resolved fluorescence resonance energy transfer (TR-FRET) assay was performed in black low-volume 384-well plates (Greiner). […] Ligand stocks were prepared via serial dilution in DMSO, added to wells in triplicate, and plates were incubated at 4° C. for 2 h and read using a BioTek Synergy Neo multimode plate reader. The Tb donor was excited at 340 nm; its fluorescence emission was monitored at 495 nm, and the acceptor FITC emission was measured at 520 nm; and the TR-FRET ratio was calculated as the signal at 520 nm divided by the signal at 495 nm. Data were plotted using GraphPad Prism as TR-FRET ratio vs. ligand concentration and fit to sigmoidal dose response curve equation.

T1 sequence (P20393 with tags, fused parts or gaps DEL324-422): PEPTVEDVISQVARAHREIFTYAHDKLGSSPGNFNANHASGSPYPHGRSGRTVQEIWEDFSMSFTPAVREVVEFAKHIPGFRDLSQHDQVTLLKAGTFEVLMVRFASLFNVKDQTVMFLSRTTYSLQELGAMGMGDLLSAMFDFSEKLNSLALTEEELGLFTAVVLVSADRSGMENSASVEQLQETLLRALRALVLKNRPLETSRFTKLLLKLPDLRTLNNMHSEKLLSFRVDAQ
T1 sequence (Q9Y618 2335-2356 partner limits assumed): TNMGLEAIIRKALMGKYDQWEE

Row | EC50 | SMILES
1 | < 0.5 µM | O=S(=O)(NCCc1cn(CC2CCCC2)c2cc(-c3ccncc3Cl)ccc12)C1CC1 [Compound 281]
2 | 0.5 to 3 µM | O=S(=O)(NCc1cn(CC(C(F)(F)F)C(F)(F)F)c2cc(-c3ccncc3Cl)c(F)cc12)C1CC1 [Compound 284]
3 | > 3 µM | CC(C)(C)C(=O)n1cc(CNS(=O)(=O)C(F)(F)F)c2cc(F)c(-c3ccncc3Cl)cc21 [Compound 285]
4 | < 0.5 µM | CC(C)(C)Cn1cc(CCNS(=O)(=O)C2CC2)c2cc(F)c(-c3ccccc3C(F)(F)F)cc21 [Compound 287]
5 | < 0.5 µM | CC(C)(C)Cn1cc(CCNS(=O)(=O)C2CC2)c2cc(F)c(-c3ccncc3Cl)cc21 [Compound 288]
6 | < 0.5 µM | CC(C)S(=O)(=O)NCCc1cn(CC(C)(C)C)c2cc(-c3ccccc3C(F)(F)F)c(F)cc12 [Compound 289]
7 | < 0.5 µM | CC(C)S(=O)(=O)NCCc1cn(CC(C)(C)C)c2cc(-c3ccncc3Cl)c(F)cc12 [Compound 290]
8 | > 3 µM | CC(C)Cn1cc(C(C)N[S+]([O-])C(C)(C)C)c2ccc(-c3ccccc3C(F)(F)F)cc21 (stereo not shown) [Compound 291]
9 | > 3 µM | Cc1c(CCNS(=O)(=O)N(C)C)c2ccc(-c3ccncc3)cc2n1CC(C)C [Example 41, dimethyl({2-[2-methyl-1-(2-methylpropyl)-6-(pyridin-4-yl)-1H-indol-3-yl]ethyl}sulfamoyl)amine]
10 | 0.5 to 3 µM | CC(C)Cn1cc(CCNS(=O)(=O)N(C)C)c2ccc(-c3ccc(F)cc3)cc21 [Example 45, N-{2-[6-(4-fluorophenyl)-1-(2-methylpropyl)-1H-indol-3-yl]ethyl}-N,N-dimethylsulfuric diamide]

The remaining lines, values behind:

Row | SMILES | EC50
11 | CC(C)Cn1cc(C(C)CNS(=O)(=O)C2CC2)c2ccc(-c3ccccc3)cc21 (stereo not shown) [Compound 256] | > 3 µM
12 | CC(C)Cn1cc([C@H]2C[C@H]2NS(=O)(=O)C(C)C)c2ccc(Br)cc21 [Compound 257] | 0.5 to 3 µM
13 | CC(C)Cn1cc([C@H]2C[C@H]2NS(=O)(=O)C(C)C)c2ccc(-c3ccncc3)cc21 [Compound 258] | < 0.5 µM
14 | CC(C)Cn1cc([C@H]2C[C@H]2NS(=O)(=O)C(C)C)c2ccc(-c3ccccc3)cc21 [Compound 259] | > 3 µM
15 | CC(C)Cn1cc(CCNS(=O)(=O)C(C)C)c2cc(F)c(-c3ccccc3)cc21 [Compound 261] | < 0.5 µM
16 | CC(C)Cn1cc(CNS(=O)(=O)C(C)C)c2cc(F)c(-c3ccccc3)cc21 [Compound 266] | < 0.5 µM
17 | CC(C)Cn1cc(CNS(=O)(=O)C(C)C)c2cc(F)c(-c3ccccc3Cl)cc21 [Compound 267] | < 0.5 µM
18 | CC(C)Cn1cc(CNS(=O)(=O)C(C)C)c2cc(F)c(-c3ccncc3Cl)cc21 [Compound 268] | < 0.5 µM
19 | CC(C)Cn1cc(CNS(=O)(=O)C(C)C)c2cc(F)c(-c3ccccc3C(F)(F)F)cc21 [Compound 269] | < 0.5 µM
20 | CC(C)S(=O)(=O)NCCc1cn(CCC(C)(C)C)c2cc(-c3ccncc3)ccc12 [Compound 270] | < 0.5 µM
21 | CC(C)S(=O)(=O)NCCc1cn(CC(C(F)(F)F)C(F)(F)F)c2cc(-c3ccncc3)ccc12 [Compound 271] | 0.5 to 3 µM
22 | CC(C)S(=O)(=O)NCCc1cn(CC2CCCC2)c2cc(-c3ccncc3)ccc12 [Compound 272] | < 0.5 µM
23 | CC(C)Cn1cc(CC(NS(=O)(=O)C(C)C)C(F)(F)F)c2ccc(-c3ccncc3)cc21 (stereo not shown) [Compound 273] | > 3 µM
24 | CC(C)Cn1cc(CC(N(C)S(=O)(=O)C(C)C)C(F)(F)F)c2ccc(-c3ccncc3)cc21 (stereo not shown) [Compound 274] | > 3 µM
25 | CC(C)Cn1cc(CC(C)NS(=O)(=O)C(C)C)c2ccc(-c3ccncc3)cc21 (stereo not shown) [Compound 275] | 0.5 to 3 µM
26 | CC(C)Cn1cc(CC(C)N(C)S(=O)(=O)C(C)C)c2ccc(-c3ccncc3)cc21 (stereo not shown) [Compound 276] | < 0.5 µM
27 | CC(C)Cn1cc(CCN(C(C)C)S(=O)(=O)C(C)C)c2ccc(-c3ccncc3)cc21 [Compound 277] | < 0.5 µM
28 | O=S(=O)(NCc1cn(CC2CCCC2)c2cc(-c3ccccc3C(F)(F)F)c(F)cc12)C1CC1 [Compound 280] | < 0.5 µM

From US20230339886A1 (University of Florida Research Foundation, Incorporated, priority 2020, published 2023)
